Tests used:
Assay in all cases: KINOMEscan
Format in all cases: binding
Settings in all cases: read-out: percent control
MST3 = MST3 (Homo sapiens (Human), UniProt Q9Y6E0)
Description: (§1) Example 2. In Vitro Kinase Selectivity Profiling of the Compounds of the Present Disclosure

MAPKAPK5 = MAPKAPK5 (Homo sapiens (Human), UniProt Q8IW41)
Description: as §1

AAK1 = AAK1 (Homo sapiens (Human), UniProt Q2M2I8)
Description: as §1

DCAMKL2 = DCAMKL2 (Homo sapiens (Human), UniProt Q8N568)
Description: as §1

[1] = target: RSK4(Kin.Dom.2-C-terminal) (Homo sapiens (Human), UniProt Q9UK32)
Description: as §1

[2] = target: RPS6KA4(Kin.Dom.2-terminal) (Homo sapiens (Human), UniProt O75676)
Description: as §1

TGFBR1 = TGFBR1 (Homo sapiens (Human), UniProt P36897)
Description: as §1

NEK4 = NEK4 (Homo sapiens (Human), UniProt P51957)
Description: as §1

EPHA8 = EPHA8 (Homo sapiens (Human), UniProt P29322)
Description: as §1

PCTK3 = PCTK3 (Homo sapiens (Human), UniProt Q07002)
Description: as §1

GCN2(Kin.Dom.2, S808G) = GCN2(Kin.Dom.2, S808G) (Homo sapiens, UniProt Q9P2K8, S808G)
Description: as §1

CAMK2G = CAMK2G (Homo sapiens (Human), UniProt Q13555)
Description: as §1

EPHA5 = EPHA5 (Homo sapiens (Human), UniProt P54756)
Description: as §1

NEK6 = NEK6 (Homo sapiens (Human), UniProt Q9HC98)
Description: as §1

CDC2L1 = CDC2L1 (Homo sapiens (Human), UniProt P21127)
Description: as §1

ADCK4 = ADCK4 (Homo sapiens (Human), UniProt Q96D53)
Description: as §1

GRK7 = GRK7 (Homo sapiens (Human), UniProt Q8WTQ7)
Description: as §1

ERBB4 = ERBB4 (Homo sapiens (Human), UniProt Q15303)
Description: as §1

MST4 = MST4 (Homo sapiens (Human), UniProt Q9P289)
Description: as §1

PHKG1 = PHKG1 (Homo sapiens (Human), UniProt Q16816)
Description: as §1

PRKG1 = PRKG1 (Homo sapiens (Human), UniProt Q13976)
Description: as §1

[3] = target: ABL1(Q252H)-nonphosphorylated (Homo sapiens (Human), UniProt P00519, Q252H)
Description: as §1

TIE1 = TIE1 (Homo sapiens (Human), UniProt P35590)
Description: as §1

YSK1 = YSK1 (Homo sapiens (Human), UniProt O00506)
Description: as §1

CLK2 = CLK2 (Homo sapiens (Human), UniProt P49760)
Description: as §1

LIMK1 = LIMK1 (Homo sapiens (Human), UniProt P53667)
Description: as §1

MLK3 = MLK3 (Homo sapiens (Human), UniProt Q16584)
Description: as §1

IGF1R = IGF1R (Homo sapiens (Human), UniProt P08069)
Description: as §1

CSNK1E = CSNK1E (Homo sapiens (Human), UniProt P49674)
Description: as §1

HIPK2 = HIPK2 (Homo sapiens (Human), UniProt Q9H2X6)
Description: as §1

CDK5 = CDK5 (Homo sapiens (Human), UniProt Q00535)
Description: as §1

PIK3CA(Q546K) = PIK3CA(Q546K) (Homo sapiens (Human), UniProt P42336, Q546K)
Description: as §1

RET(M918T) = RET(M918T) (Homo sapiens (Human), UniProt P07949, M918T)
Description: as §1

EPHA2 = EPHA2 (Homo sapiens (Human), UniProt P29317)
Description: as §1

[4] = target: ABL1(H396P)-phosphorylated (Homo sapiens (Human), UniProt P00519, H396P)
Description: as §1

CDK8 = CDK8 (Homo sapiens (Human), UniProt P49336)
Description: as §1

ACVR2B = ACVR2B (Homo sapiens (Human), UniProt Q13705)
Description: as §1

JNK3 = JNK3 (Homo sapiens (Human), UniProt P53779)
Description: as §1

CSNK1G1 = CSNK1G1 (Homo sapiens (Human), UniProt Q9HCP0)
Description: as §1

TAOK1 = TAOK1 (Homo sapiens (Human), UniProt Q7L7X3)
Description: as §1

Sequence of CSNK1G1 (Q9HCP0 whole entry): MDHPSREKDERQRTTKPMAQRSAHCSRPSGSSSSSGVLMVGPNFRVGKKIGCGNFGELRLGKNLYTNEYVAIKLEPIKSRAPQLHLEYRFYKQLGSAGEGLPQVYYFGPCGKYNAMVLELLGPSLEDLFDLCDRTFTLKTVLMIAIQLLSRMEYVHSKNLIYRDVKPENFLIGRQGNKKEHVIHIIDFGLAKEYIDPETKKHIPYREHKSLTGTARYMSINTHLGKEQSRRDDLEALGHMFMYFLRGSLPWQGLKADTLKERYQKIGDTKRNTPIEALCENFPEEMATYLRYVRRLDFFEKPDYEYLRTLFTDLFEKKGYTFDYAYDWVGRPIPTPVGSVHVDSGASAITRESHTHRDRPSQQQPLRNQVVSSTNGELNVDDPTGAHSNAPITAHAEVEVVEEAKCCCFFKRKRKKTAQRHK
Sequence of ACVR2B (Q13705 19-512): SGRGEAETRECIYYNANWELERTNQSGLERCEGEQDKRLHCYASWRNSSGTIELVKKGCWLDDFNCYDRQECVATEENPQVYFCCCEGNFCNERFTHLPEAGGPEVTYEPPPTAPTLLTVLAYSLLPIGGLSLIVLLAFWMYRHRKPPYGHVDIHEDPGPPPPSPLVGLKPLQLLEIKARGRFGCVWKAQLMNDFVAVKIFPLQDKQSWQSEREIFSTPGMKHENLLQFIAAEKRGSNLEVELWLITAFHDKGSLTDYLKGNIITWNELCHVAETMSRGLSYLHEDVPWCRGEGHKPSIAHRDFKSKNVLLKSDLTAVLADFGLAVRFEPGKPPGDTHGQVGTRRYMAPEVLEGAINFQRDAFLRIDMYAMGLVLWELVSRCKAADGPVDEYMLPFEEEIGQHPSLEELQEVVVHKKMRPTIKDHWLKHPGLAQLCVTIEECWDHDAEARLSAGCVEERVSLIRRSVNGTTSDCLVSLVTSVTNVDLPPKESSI
Sequence of YSK1 (O00506 whole entry): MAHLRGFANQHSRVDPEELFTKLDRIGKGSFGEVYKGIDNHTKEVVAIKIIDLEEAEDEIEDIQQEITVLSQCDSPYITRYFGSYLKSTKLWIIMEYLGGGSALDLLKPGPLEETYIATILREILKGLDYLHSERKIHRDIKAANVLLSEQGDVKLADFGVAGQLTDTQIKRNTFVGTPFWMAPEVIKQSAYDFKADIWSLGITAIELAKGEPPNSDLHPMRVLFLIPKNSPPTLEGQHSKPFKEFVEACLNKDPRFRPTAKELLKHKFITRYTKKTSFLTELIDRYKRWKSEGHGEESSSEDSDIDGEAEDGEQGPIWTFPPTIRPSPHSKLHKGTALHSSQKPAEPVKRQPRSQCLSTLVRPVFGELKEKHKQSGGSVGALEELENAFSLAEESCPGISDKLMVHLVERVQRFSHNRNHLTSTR
Sequence of PRKG1 (Q13976 whole entry): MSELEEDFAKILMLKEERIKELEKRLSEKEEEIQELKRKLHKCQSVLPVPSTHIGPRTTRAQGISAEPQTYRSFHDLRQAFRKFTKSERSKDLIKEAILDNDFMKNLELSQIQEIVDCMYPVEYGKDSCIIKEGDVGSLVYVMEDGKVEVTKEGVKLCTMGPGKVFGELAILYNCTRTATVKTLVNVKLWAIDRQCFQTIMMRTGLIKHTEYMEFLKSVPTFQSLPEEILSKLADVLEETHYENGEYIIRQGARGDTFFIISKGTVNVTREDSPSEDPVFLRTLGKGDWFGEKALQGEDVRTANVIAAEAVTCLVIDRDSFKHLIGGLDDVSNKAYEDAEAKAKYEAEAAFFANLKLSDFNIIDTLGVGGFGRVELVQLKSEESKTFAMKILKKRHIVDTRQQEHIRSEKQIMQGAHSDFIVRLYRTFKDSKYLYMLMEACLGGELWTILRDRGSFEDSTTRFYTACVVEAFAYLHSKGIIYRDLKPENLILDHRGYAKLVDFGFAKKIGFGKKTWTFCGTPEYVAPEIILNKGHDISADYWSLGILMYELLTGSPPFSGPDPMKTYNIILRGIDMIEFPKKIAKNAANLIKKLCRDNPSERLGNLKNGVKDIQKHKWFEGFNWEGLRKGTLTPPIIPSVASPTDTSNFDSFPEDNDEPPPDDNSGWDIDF
Sequence of RET(M918T) (P07949 29-1114 M918T): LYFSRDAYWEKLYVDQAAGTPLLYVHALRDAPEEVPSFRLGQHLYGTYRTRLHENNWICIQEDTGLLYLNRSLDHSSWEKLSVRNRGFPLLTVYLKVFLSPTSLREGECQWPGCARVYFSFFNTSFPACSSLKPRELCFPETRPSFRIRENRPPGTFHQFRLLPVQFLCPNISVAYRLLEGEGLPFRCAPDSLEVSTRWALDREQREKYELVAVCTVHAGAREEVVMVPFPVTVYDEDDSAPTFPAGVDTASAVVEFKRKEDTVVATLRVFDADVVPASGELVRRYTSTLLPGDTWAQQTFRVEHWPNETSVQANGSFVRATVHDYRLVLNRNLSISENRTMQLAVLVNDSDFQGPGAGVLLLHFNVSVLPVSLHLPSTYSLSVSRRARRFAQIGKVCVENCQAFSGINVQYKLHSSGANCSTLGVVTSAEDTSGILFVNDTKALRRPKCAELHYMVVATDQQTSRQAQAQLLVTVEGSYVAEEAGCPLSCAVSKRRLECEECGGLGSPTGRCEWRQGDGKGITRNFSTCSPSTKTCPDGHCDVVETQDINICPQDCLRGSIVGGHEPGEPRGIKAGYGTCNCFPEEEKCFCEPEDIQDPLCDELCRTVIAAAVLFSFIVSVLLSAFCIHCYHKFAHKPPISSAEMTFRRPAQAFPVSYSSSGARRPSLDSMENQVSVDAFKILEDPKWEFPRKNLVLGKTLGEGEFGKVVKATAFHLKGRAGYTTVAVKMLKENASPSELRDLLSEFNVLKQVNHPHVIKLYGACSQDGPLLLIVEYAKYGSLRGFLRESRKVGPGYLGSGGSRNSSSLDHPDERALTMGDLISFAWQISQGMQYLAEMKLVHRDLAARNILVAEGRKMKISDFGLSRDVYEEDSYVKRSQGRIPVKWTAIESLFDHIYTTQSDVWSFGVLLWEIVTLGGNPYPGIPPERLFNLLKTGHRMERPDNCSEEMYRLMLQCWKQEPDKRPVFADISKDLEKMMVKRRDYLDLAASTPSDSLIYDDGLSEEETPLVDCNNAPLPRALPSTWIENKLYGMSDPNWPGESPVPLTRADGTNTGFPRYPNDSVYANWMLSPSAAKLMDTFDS
Sequence of TGFBR1 (P36897 34-503): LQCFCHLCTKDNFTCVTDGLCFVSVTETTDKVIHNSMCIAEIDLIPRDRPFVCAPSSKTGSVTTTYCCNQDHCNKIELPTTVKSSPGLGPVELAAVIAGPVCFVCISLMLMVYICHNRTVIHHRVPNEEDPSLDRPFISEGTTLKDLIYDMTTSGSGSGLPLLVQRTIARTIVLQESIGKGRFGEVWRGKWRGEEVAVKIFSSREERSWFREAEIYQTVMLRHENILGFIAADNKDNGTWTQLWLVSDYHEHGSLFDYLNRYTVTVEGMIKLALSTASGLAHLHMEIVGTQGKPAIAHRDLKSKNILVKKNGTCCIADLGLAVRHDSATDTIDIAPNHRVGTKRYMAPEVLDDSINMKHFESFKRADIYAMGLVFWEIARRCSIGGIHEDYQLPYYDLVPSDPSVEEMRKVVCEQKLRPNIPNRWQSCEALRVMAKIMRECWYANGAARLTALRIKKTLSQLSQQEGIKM
Sequence of NEK4 (P51957 whole entry): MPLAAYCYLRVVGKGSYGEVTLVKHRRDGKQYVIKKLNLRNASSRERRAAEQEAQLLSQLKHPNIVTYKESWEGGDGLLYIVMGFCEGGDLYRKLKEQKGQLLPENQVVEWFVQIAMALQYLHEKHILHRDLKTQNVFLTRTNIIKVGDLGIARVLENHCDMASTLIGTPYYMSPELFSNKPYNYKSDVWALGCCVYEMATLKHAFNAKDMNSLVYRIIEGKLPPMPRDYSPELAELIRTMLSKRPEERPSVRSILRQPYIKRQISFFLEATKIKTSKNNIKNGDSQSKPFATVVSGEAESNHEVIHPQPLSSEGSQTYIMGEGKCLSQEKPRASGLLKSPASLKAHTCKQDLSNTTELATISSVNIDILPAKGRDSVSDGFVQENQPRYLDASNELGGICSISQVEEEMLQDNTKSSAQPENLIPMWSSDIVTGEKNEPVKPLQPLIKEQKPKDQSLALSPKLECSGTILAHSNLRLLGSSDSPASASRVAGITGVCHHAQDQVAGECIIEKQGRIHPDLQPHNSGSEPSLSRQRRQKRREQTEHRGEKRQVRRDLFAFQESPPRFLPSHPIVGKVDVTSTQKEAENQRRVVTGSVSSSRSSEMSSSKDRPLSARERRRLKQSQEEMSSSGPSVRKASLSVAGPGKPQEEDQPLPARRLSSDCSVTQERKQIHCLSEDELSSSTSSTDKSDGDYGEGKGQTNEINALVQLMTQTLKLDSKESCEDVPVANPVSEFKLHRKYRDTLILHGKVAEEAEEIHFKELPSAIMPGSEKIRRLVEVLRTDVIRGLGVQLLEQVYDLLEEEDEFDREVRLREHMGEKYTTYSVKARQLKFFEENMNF
Sequence of CAMK2G (Q13555 whole entry): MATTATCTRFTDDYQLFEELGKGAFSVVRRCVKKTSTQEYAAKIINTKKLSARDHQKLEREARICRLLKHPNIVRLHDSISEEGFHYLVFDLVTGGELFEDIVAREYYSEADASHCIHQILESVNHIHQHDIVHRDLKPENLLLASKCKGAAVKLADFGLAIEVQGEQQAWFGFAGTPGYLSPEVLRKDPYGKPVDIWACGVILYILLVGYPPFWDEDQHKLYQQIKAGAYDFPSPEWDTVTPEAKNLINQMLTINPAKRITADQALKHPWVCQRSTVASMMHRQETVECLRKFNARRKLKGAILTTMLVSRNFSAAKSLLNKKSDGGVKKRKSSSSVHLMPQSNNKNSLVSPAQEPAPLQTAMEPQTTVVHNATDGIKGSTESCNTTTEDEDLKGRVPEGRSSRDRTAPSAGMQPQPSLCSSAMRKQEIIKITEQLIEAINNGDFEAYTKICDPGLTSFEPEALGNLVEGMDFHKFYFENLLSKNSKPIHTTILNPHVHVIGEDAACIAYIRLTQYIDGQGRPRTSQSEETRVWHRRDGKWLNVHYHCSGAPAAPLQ

| Compound | remaining binding at 1 µM (MST3) [%] | remaining binding at 1 µM (MAPKAPK5) [%] | remaining binding at 1 µM (AAK1) [%] | remaining binding at 1 µM (DCAMKL2) [%] | remaining binding at 1 µM [1] [%] | remaining binding at 1 µM [2] [%] | remaining binding at 1 µM (TGFBR1) [%] | remaining binding at 1 µM (NEK4) [%] | remaining binding at 1 µM (EPHA8) [%] | remaining binding at 1 µM (PCTK3) [%] | remaining binding at 1 µM (GCN2(Kin.Dom.2, S808G)) [%] | remaining binding at 1 µM (CAMK2G) [%] | remaining binding at 1 µM (EPHA5) [%] | remaining binding at 1 µM (NEK6) [%] | remaining binding at 1 µM (CDC2L1) [%] | remaining binding at 1 µM (ADCK4) [%] | remaining binding at 1 µM (GRK7) [%] | remaining binding at 1 µM (ERBB4) [%] | remaining binding at 1 µM (MST4) [%] | remaining binding at 1 µM (PHKG1) [%] | further results |
| --- | --- | --- | --- | --- | --- | --- | --- | --- | --- | --- | --- | --- | --- | --- | --- | --- | --- | --- | --- | --- | --- |
| CCN1CCN(Cc2ccc(Nc3nc4ccc(Oc5ccnc(NC(C)=O)c5)c(C)c4n3C)cc2C(F)(F)F)CC1 [Compound I-6, N-(4-(2-(4-((4-ethylpiperazin-1-yl)methyl)-3-(trifluoromethyl)phenylamino)-1,7-dimethyl-1H-benzo[d]imidazol-6-yloxy)pyridin-2-yl)acetamide] | 90 | 83 | 96 | 100 | 97 | 89 | 95 | 56 | 2.5 | 76 | 44 | 100 | 98 | 99 | 0 | 78 | 95 | 94 | 100 | 91 | remaining binding at 1 µM (PRKG1): 98%; remaining binding at 1 µM [3]: 1.9%; remaining binding at 1 µM (TIE1): 4%; remaining binding at 1 µM (YSK1): 65%; remaining binding at 1 µM (CLK2): 91%; remaining binding at 1 µM (LIMK1): 65%; remaining binding at 1 µM (MLK3): 95%; remaining binding at 1 µM (IGF1R): 34%; remaining binding at 1 µM (CSNK1E): 66%; remaining binding at 1 µM (HIPK2): 86%; remaining binding at 1 µM (CDK5): 90%; remaining binding at 1 µM (PIK3CA(Q546K)): 75%; remaining binding at 1 µM (RET(M918T)): 0.15%; remaining binding at 1 µM (EPHA2): 68%; remaining binding at 1 µM [4]: 30%; remaining binding at 1 µM (CDK8): 10%; remaining binding at 1 µM (ACVR2B): 100%; remaining binding at 1 µM (JNK3): 77%; remaining binding at 1 µM (CSNK1G1): 100%; remaining binding at 1 µM (TAOK1): 46% |
| CCN1CCN(Cc2ccc(Nc3nc4ccc(Oc5ccnc(NC(C)=O)c5)cc4n3C)cc2C(F)(F)F)CC1 [Compound I-2] | 94 | 99 | 100 | 89 | 86 | 88 | 100 | 56 | 43 | 78 | 28 | 100 | 98 | 93 | 0.1 | 84 | 88 | 84 | 89 | 94 | remaining binding at 1 µM (PRKG1): 100%; remaining binding at 1 µM [3]: 0%; remaining binding at 1 µM (TIE1): 11%; remaining binding at 1 µM (YSK1): 94%; remaining binding at 1 µM (CLK2): 64%; remaining binding at 1 µM (LIMK1): 100%; remaining binding at 1 µM (MLK3): 100%; remaining binding at 1 µM (IGF1R): 59%; remaining binding at 1 µM (CSNK1E): 90%; remaining binding at 1 µM (HIPK2): 100%; remaining binding at 1 µM (CDK5): 97%; remaining binding at 1 µM (PIK3CA(Q546K)): 100%; remaining binding at 1 µM (RET(M918T)): 0.8%; remaining binding at 1 µM (EPHA2): 100%; remaining binding at 1 µM [4]: 45%; remaining binding at 1 µM (CDK8): 17%; remaining binding at 1 µM (ACVR2B): 97%; remaining binding at 1 µM (JNK3): 100%; remaining binding at 1 µM (CSNK1G1): 100%; remaining binding at 1 µM (TAOK1): 77% |

From patent publication US12522583B2, “Benzimidazole derivatives and aza-benzimidazole derivatives as Janus kinase 2 inhibitors and uses thereof” (Dana-Farber Cancer Institute, Inc., priority 2018, dated 2026)
